Data taken from patent US6124278A, “Acylbenzoxazines for enhancing synaptic response” (The Regents of the University of California, priority 1998, dated 2000).
Several values for one entry are separate records, joined by “and”; a condition that tells them apart may be missing. Equal values may be shown once. Read-outs that look alike come from different tables or passages of the source.

Assays:
[1] = Plasma clearance half-life and oral bioavailability (AUC oral vs iv) in rat; assay type: in vivo
Description: (§1) The third data column reports the magnitude of the increase in the amplitude of the EPSP at the lowest concentrations that produced a significant increase. The characteristic of a compound to produce an increase in the EPSP response has been a reliable predictor of the ability to improve memory in the 8-arm radial maze task.
*Plasma clearance following iv administration in rat
^# AUC for oral administration as a percentage of AUC for iv

[2] = tested on: AMPA receptors; test: Field EPSP response in rat hippocampal slices (CA1); assay type: cell-based, rat (Sprague-Dawley); details: for EPSP Response (percentage increase in the area of the EPSP response): rat hippocampal slices
Protocol: The physiological effects of invention compounds can be tested in vitro with slices of rat hippocampus according to the following procedure. Excitatory responses (field EPSPs) are measured in hippocampal slices, which are maintained in a recording chamber continuously perfused with artificial cerebrospinal fluid (ACSF). During a 15-30 minute interval, the perfusion medium is switched to one containing various concentrations of the test compounds. Responses collected immediately before and at the end of drug perfusion were superimposed in order to calculate both the percent increase in EPSP amplitude and percent increase in the width of the response at one-half the peak height (half-width).
To conduct these tests, the hippocampus was removed from anesthetized, 2 month old Sprague-Dawley rats and in vitro slices (400 micrometers thick) were prepared and maintained in an interface chamber at 35° C. using conventional techniques [see, for example, Dunwiddie and Lynch, J. Physiol. 276: 353-367 (1978)]. The chamber was constantly perfused at 0.5 mL/min with ACSF containing (in mM): NaCl 124, KCl 3, KH2 PO4 1.25, MgSO4 2.5, CaCl2 3.4, NaHCO3 26, glucose 10 and L-ascorbate 2. A bipolar nichrome stimulating electrode was positioned in the dendritic layer (stratum radiatum) of the hippocampal subfield CA1 close to the border of subfield CA3.
Current pulses (0.1 msec) through the stimulating electrode activate a population of the Schaffer-commissural (SC) fibers that arise from neurons in the subdivision CA3 and terminate in synapses on the dendrites of CA1 neurons. Activation of these synapses causes them to release the transmitter glutamate. Glutamate binds to the post-synaptic AMPA receptors which then transiently open an associated ion channel and permit a sodium current to enter the postsynaptic cell. This current results in a voltage in the extracellular space (the field excitatory post-synaptic potential or field "EPSP") which is recorded by a high impedance recording electrode positioned in the middle of the stratum radiatum of CA1.
For the experiments summarized Table 1, the intensity of the stimulation current was adjusted to produce half-maximal EPSPs (typically about 1.5-2.0 mV). Paired stimulation pulses were given every 40 sec with an interpulse interval of 200 msec (see below). The field EPSPs of the second response were digitized and analyzed to determine amplitude, half-width, and response area. If the responses were stable for 15-30 minutes (baseline), test compounds were added to the perfusion lines for a period of about 15 minutes. The perfusion was then changed back to regular ACSF.
Paired-pulse stimulation was used since stimulation of the SC fibers, in part, activates interneurons which generate an inhibitory postsynaptic potential (IPSP) in the pyramidal cells of CA1. This feed forward IPSP typically sets in after the EPSP reaches its peak. It accelerates the repolarization and shortens the decay phase of the EPSP, and thus could partially mask the effects of the test compounds. One of the relevant features of the feed-forward IPSP is that it can not be reactivated for several hundred milliseconds following a stimulation pulse. […]
The field EPSP recorded in field CA1 after stimulation of CA3 axons is known to be mediated by AMPA receptors: the receptors are present in the synapses [Kessler et al., Brain Res. 560: 337-341 (1991)] and drugs that selectively block the receptor selectively block the field EPSP [Muller et al., Science, supra]. […]

[3] = tested on: AMPA receptors; details: metabolite; cited from earlier work
[4] = comparison compound, Example 1 of U.S. Pat. No. 5,736,543; rat; cited from earlier work
[5] = Memory enhancement in eight-arm radial maze; assay type: in vivo; details: rat, read-out: Maze MED (Minimum Effective Dose to improve performance of rats in the eight-arm radial maze)
Description: as §1
^.dagger-dbl. Minimum Effective Dose to improve performance of rats i
the eightarm radial maze.

What does the source list for `O=C1CCC2Oc3cc4c(cc3CN12)OCO4` (centres unmarked) [Compound 1, 5a,6,7,8-Tetrahydro-1,3-dioxolo[4,5-g]pyrrolo[2,1-b][1,3]benzoxazine-8(10H)-one]?
half-life ([1]; iv administration): 58 min; bioavailability ([1]; oral vs iv, read-out: Bioavailability (AUC for oral administration as a percentage of AUC for iv)): 100%; EPSP Response (percentage increase in the area of the EPSP response) ([2]; 300 μM): 20% and 25%

With `COc1ccc(C(=O)NCCCC(=O)O)cc1` [anisoyl-GABA] as the compound, how does the Aniracetam-like effects [3] read?
Its Aniracetam-like effects is “only weak aniracetam-like effects”.

For `O=C1CCCC2Oc3cc4c(cc3CN12)OCCO4` (centres unmarked) [Compound 3, 6a,7,8,9-Tetrahydro-1,4-dioxan[2,3-g]pyrido[2,1-b][1,3]benzoxazine-10(10H,12H)-dione], which “EPSP Response (percentage increase in the area of the EPSP response)” value ([2]; 30 μM) is on record?
The value was 10%.

Which results are given for `O=C1c2cc3c(cc2OC2CCCN12)OCO3` (centres unmarked) [Example 1 of U.S. Pat. No. 5,736,543]?
bioavailability [4]: 35%; half-life [4]: 31 min

Which results are given for `O=C1CCC2Oc3cc4c(cc3C(=O)N12)OCO4` (centres unmarked) [Compound 4, 5a,6,7,8-Tetrahydro-1,3-dioxolo[4,5-g]pyrrolo[2,1-b][1,3]benzoxazine-8,10(10H)-dione]?
Activity in the slice model, in words ([2]; 300 μM): inactive; EPSP Response (percentage increase in the area of the EPSP response) ([2]; 300 μM): 0%

Which “EPSP Response (percentage increase in the area of the EPSP response)” value ([2]; 30 μM) does the source give for `O=C1CCC2Oc3cc4c(cc3CN12)OCCO4` (centres unmarked) [Compound 2, 6a,7,8,9-Tetrahydro-1,4-dioxin[2,3-g]pyrrolo[2,1-b][1,3]benzoxazine-9(11H)-one] here?
The value was 20%.

What about the minimal effective dose [5] of the same compound?
Its minimal effective dose is 0.1 mg/kg.
